# From patent US11312727B1, “Macrocyclic flu endonuclease inhibitors” (Janssen BioPharma, Inc., priority 2018, dated 2022)
# Assays:
# [1] = tested on: Influenza strain A549 A/WSN/33 (H1N1); test: microbe, parasite or virus in culture; format: cell-based; details: Influenza A virus, A549, 20 h, A549 cells, influenza A/WSN/33 (H1N1), 20 hours incubation; read-out: A549_A(H1N1) EC50
# in vitro = details: human, CC50, uninfected A549 cells, CellTiter-Glo
Compound,EC50 [1] [nM],CC50 (in vitro) [nM]
"CC[C@H]1/C=C/COc2c(F)cccc2[C@@H](c2ccccn2)N2CN1C(=O)c1c(O)c(=O)ccn12 (single isomer, unassigned) [Compound 154AB, (9*S,18*S,*E)-9-ethyl-4-fluoro-12-hydroxy-18-(pyridin-2-yl)-6,9-dihydro-18H-10,17-methanobenzo[b]pyrido[1,2-f][1]oxa[5,6,9]triazacyclotridecine-11,13-dione]",> 50,> 100
"CC[C@@H]1/C=C/COc2c(F)cccc2[C@H](c2ccccn2)N2CN1C(=O)c1c(O)c(=O)ccn12 (single isomer, unassigned) [Compound 154BA, (9*R,18*R,*E)-9-ethyl-4-fluoro-12-hydroxy-18-(pyridin-2-yl)-6,9-dihydro-18H-10,17-methanobenzo[b]pyrido[1,2-f][1]oxa[5,6,9]triazacyclotridecine-11,13-dione]",6.8,> 100
"CC[C@H]1/C=C/COc2c(F)cccc2[C@H](c2ccccn2)N2CN1C(=O)c1c(O)c(=O)ccn12 (single isomer, unassigned) [Compound 154BB, (9*S,18*R,*E)-9-ethyl-4-fluoro-12-hydroxy-18-(pyridin-2-yl)-6,9-dihydro-18H-10,17-methanobenzo[b]pyrido[1,2-f][1]oxa[5,6,9]triazacyclotridecine-11,13-dione]",3.4,> 100
"Cc1ccccc1[C@@H]1c2ccc(F)c(F)c2OC/C=C\CN2CN1n1ccc(=O)c(O)c1C2=O (single isomer, unassigned) [Compound 155A, (18*R,*Z)-3,4-difluoro-12-hydroxy-18-(o-tolyl)-6,9-dihydro-18H-10,17-methanobenzo[b]pyrido[1,2-f][1]oxa[5,6,9]triazacyclotridecine-11,13-dione]",1.2,> 100
"Cc1ccccc1C1c2ccc(F)c(F)c2OC/C=C\CN2CN1n1ccc(=O)c(O)c1C2=O (single isomer, unassigned) [Compound 155B, (18*S,*Z)-3,4-difluoro-12-hydroxy-18-(o-tolyl)-6,9-dihydro-18H-10,17-methanobenzo[b]pyrido[1,2-f][1]oxa[5,6,9]triazacyclotridecine-11,13-dione]",> 50,> 100
"O=C1c2c(O)c(=O)ccn2N2CN1C1(/C=C/COc3cccc4c3[C@H]2c2ccccc2SC4)CCCC1 (single isomer, unassigned) [Compound 156A, (17a′*S,*E)-12′-hydroxy-2′,17a′-dihydro-6′H-spiro[cyclopentane-1,9′-[3,4](epiprop[1]en[1]yl[3]ylidene)[10,17]methanobenzo[6,7]thiepino[4,5-c]pyrido[1,2-f][1]oxa[5,6,9]triazacyclotridecine]-11′,13′-dione]",0.51,> 100
"CC(C)(C)[C@H]1/C=C/COc2cccc3c2[C@@H](c2ccccc2SC3)N2CN1C(=O)c1c(O)c(=O)ccn12 (single isomer, unassigned) [Compound 157A, (9*R,17a*S,*E)-9-(tert-butyl)-12-hydroxy-2,6,9,17a-tetrahydro-3,4-(epiprop[1]en[1]yl[3]ylidene)-10,17-methanobenzo[6,7]thiepino[4,5-c]pyrido[1,2-f][1]oxa[5,6,9]triazacyclotridecine-11,13-dione]",1.3,> 100
"CC(C)(C)[C@@H]1/C=C/COc2cccc3c2[C@H](c2ccccc2SC3)N2CN1C(=O)c1c(O)c(=O)ccn12 (single isomer, unassigned) [Compound 157B, (9*S,17a*R,*E)-9-(tert-butyl)-12-hydroxy-2,6,9,17a-tetrahydro-3,4-(epiprop[1]en[1]yl[3]ylidene)-10,17-methanobenzo[6,7]thiepino[4,5-c]pyrido[1,2-f][1]oxa[5,6,9]triazacyclotridecine-11,13-dione]",> 50,> 100
"CC(C)c1ccccc1[C@H]1c2ccc(F)c(F)c2OC/C=C\CN2CN1n1ccc(=O)c(O)c1C2=O (single isomer, unassigned) [Compound 158A, (18*S,*Z)-3,4-difluoro-12-hydroxy-18-(2-isopropylphenyl)-6,9-dihydro-18H-10,17-methanobenzo[b]pyrido[1,2-f][1]oxa[5,6,9]triazacyclotridecine-11,13-dione]",> 50,> 100
"CC(C)c1ccccc1[C@@H]1c2ccc(F)c(F)c2OC/C=C\CN2CN1n1ccc(=O)c(O)c1C2=O (single isomer, unassigned) [Compound 158B, (18*R,*Z)-3,4-difluoro-12-hydroxy-18-(2-isopropylphenyl)-6,9-dihydro-18H-10,17-methanobenzo[b]pyrido[1,2-f][1]oxa[5,6,9]triazacyclotridecine-11,13-dione]",> 50,> 100
"O=C1c2c(O)c(=O)ccn2N2CN1C1(/C=C/COc3cc(F)c(F)c4c3[C@@H]2c2ccccc2SC4)CCC1 (single isomer, unassigned) [Compound 159A, (17a′*R,*E)-24′,25′-difluoro-12′-hydroxy-2′,17a′-dihydro-6′H-spiro[cyclobutane-1,9′-[3,4](epiprop[1]en[1]yl[3]ylidene)[10,17]methanobenzo[6,7]thiepino[4,5-c]pyrido[1,2-f][1]oxa[5,6,9]triazacyclotridecine]-11′,13′-dione]",> 50,> 100
"O=C1c2c(O)c(=O)ccn2N2CN1C1(/C=C/COc3cc(F)c(F)c4c3[C@H]2c2ccccc2SC4)CCC1 (single isomer, unassigned) [Compound 159B, (17a′*S,*E)-24′,25′-difluoro-12′-hydroxy-2′,17a′-dihydro-6′H-spiro[cyclobutane-1,9′-[3,4](epiprop[1]en[1]yl[3]ylidene)[10,17]methanobenzo[6,7]thiepino[4,5-c]pyrido[1,2-f][1]oxa[5,6,9]triazacyclotridecine]-11′,13′-dione]",0.19,> 100
"CC[C@H]1/C=C/COc2c(ccc(F)c2F)[C@@H](c2ccccn2)N2CN1C(=O)c1c(O)c(=O)ccn12 (single isomer, unassigned) [Compound 160AA, (9*S,18*S,*E)-9-ethyl-3,4-difluoro-12-hydroxy-18-(pyridin-2-yl)-6,9-dihydro-18H-10,17-methanobenzo[b]pyrido[1,2-f][1]oxa[5,6,9]triazacyclotridecine-11,13-dione]",5.2,> 100
"CC[C@@H]1/C=C/COc2c(ccc(F)c2F)[C@@H](c2ccccn2)N2CN1C(=O)c1c(O)c(=O)ccn12 (single isomer, unassigned) [Compound 160AB, (9*R,18*S,*E)-9-ethyl-3,4-difluoro-12-hydroxy-18-(pyridin-2-yl)-6,9-dihydro-18H-10,17-methanobenzo[b]pyrido[1,2-f][1]oxa[5,6,9]triazacyclotridecine-11,13-dione]",2.8,> 100
"CC[C@H]1/C=C/COc2c(ccc(F)c2F)[C@H](c2ccccn2)N2CN1C(=O)c1c(O)c(=O)ccn12 (single isomer, unassigned) [Compound 160BA, (9*S,18*R,*E)-9-ethyl-3,4-difluoro-12-hydroxy-18-(pyridin-2-yl)-6,9-dihydro-18H-10,17-methanobenzo[b]pyrido[1,2-f][1]oxa[5,6,9]triazacyclotridecine-11,13-dione]",> 50,> 100
"CC[C@@H]1/C=C/COc2c(ccc(F)c2F)[C@H](c2ccccn2)N2CN1C(=O)c1c(O)c(=O)ccn12 (single isomer, unassigned) [Compound 160BB, (9*R,18*R,*E)-9-ethyl-3,4-difluoro-12-hydroxy-18-(pyridin-2-yl)-6,9-dihydro-18H-10,17-methanobenzo[b]pyrido[1,2-f][1]oxa[5,6,9]triazacyclotridecine-11,13-dione]",> 50,> 100
"O=C1c2c(O)c(=O)ccn2N2CN1C[C@H]1C[C@@H](COc3cccc4c3[C@@H]2c2ccccc2SC4)C1 (single isomer, unassigned) [Compound 161A]",> 50,> 100
"O=C1c2c(O)c(=O)ccn2N2CN1C[C@H]1C[C@@H](COc3cccc4c3[C@H]2c2ccccc2SC4)C1 (single isomer, unassigned) [Compound 161B]",15,> 100
"C[C@@H]1/C=C/COc2cc(F)c(F)c3c2[C@H](c2ccccc2SC3)N2CN1C(=O)c1c(O)c(=O)ccn12 (single isomer, unassigned) [Compound 162A, (9*R,17a*R,*E)-24,25-difluoro-12-hydroxy-9-methyl-2,6,9,17a-tetrahydro-3,4-(epiprop[1]en[1]yl[3]ylidene)-10,17-methanobenzo[6,7]thiepino[4,5-c]pyrido[1,2-f][1]oxa[5,6,9]triazacyclotridecine-11,13-dione]",> 50,> 100
"C[C@H]1/C=C/COc2cc(F)c(F)c3c2[C@@H](c2ccccc2SC3)N2CN1C(=O)c1c(O)c(=O)ccn12 (single isomer, unassigned) [Compound 162B, (9*S,17a*S,*E)-24,25-difluoro-12-hydroxy-9-methyl-2,6,9,17a-tetrahydro-3,4-(epiprop[1]en[1]yl[3]ylidene)-10,17-methanobenzo[6,7]thiepino[4,5-c]pyrido[1,2-f][1]oxa[5,6,9]triazacyclotridecine-11,13-dione]",0.23,> 100
"C[C@@H]1/C=C\COc2cc(F)c(F)c3c2[C@H](c2ccccc2SC3)N2CN1C(=O)c1c(O)c(=O)ccn12 (single isomer, unassigned) [Compound 162C, (13*R,21a*R,*Z)-24,25-difluoro-16-hydroxy-13-methyl-6,10,13,21a-tetrahydro-7,8-(epiprop[1]en[1]yl[3]ylidene)-14,21-methanobenzo[6,7]thiepino[4,5-c]pyrido[1,2-f][1]oxa[5,6,9]triazacyclotridecine-15,17-dione]",10,> 100
